Assay results reported in PubChem BioAssay AID216 (DTP/NCI, 2004).
Values joined by “and” are separate entries in the source; they are usually repeats but may differ in a detail not shown here. Equal values may be shown once. Toxic doses and inconclusive results are not listed. The calls were made as follows: active = survival T/C of 150% or more; inactive = T/C below 125% in these data.

Test system: BDF1 mice, P288 leukemia ip, survival T/C
Test: NCI In Vivo Anticancer Drug Screen. Data for tumor model P288 Lymphocytic Leukemia (intraperitoneal) in B6D2F1 (BDF1) mice
Conditions: endpoint: survival time, mean or median, higher = longer survival
Experimental: The antitumor activity of compounds was measured in mice bearing transplantable tumors. Survival or tumor size were measured and the results are expressed as the measurement made in the treated group (T) divided by the measurement made in the vehicle treated control group (C). The tumor model used in this assay is P288 Lymphocytic Leukemia (intraperitoneal) in B6D2F1 (BDF1) mice

[1] = dose: 12.5 mg/kg/injection, schedule: Q01DX Z (ip), vehicle: carboxymethylcellulose (CMC)
[2] = dose: 25.0 mg/kg/injection, schedule: Q01DX010 (ip), vehicle: saline
[3] = dose: 25.0 mg/kg/injection, schedule: Q01DX Z (ip), vehicle: carboxymethylcellulose (CMC)
[4] = dose: 50.0 mg/kg/injection, schedule: Q01DX010 (ip), vehicle: saline
[5] = dose: 50.0 mg/kg/injection, schedule: Q01DX Z (ip), vehicle: carboxymethylcellulose (CMC)
[6] = dose: 100.0 mg/kg/injection, schedule: Q01DX010 (ip), vehicle: saline
[7] = dose: 200.0 mg/kg/injection, schedule: Q01DX010 (ip), vehicle: saline
[8] = dose: 125.0 micrograms/kg/injection, schedule: Q01DX010 (ip), vehicle: saline
[9] = dose: 0.12 mg/kg/injection, schedule: Q01DX Z (ip), vehicle: saline

Measured: T/C

CSc1ncnc2nc[nH]c12
inactive: dose: 6.25 mg/kg/injection, schedule: Q01DX Z (ip), vehicle: carboxymethylcellulose (CMC) 105 % of control | [1] 101 % of control | [2] 90 % of control | [3] 101 % of control | [4] 86 % of control and 90 % of control | [5] 113 % of control and 88 % of control | [6] 100 % of control | [7] 90 % of control and 100 % of control

N#C[C@@H]1C2C=CC(CC2)[C@H]1C#N
inactive: dose: 0.25 mg/kg/injection, schedule: Q01DX010 (ip), vehicle: saline 89 % of control | dose: 63.0 micrograms/kg/injection, schedule: Q01DX010 (ip), vehicle: saline 105 % of control | [8] 105 % of control | dose: 500.0 micrograms/kg/injection, schedule: Q01DX010 (ip), vehicle: saline 111 % of control

CSCS(=O)C[C@H](CO)NC(=O)/C=C/c1c(C)[nH]c(=O)[nH]c1=O (stereo partly drawn)
inactive: dose: 0.06 mg/kg/injection, schedule: Q01DX Z (ip), vehicle: saline 102 % of control | [9] 96 % of control | dose: 0.25 mg/kg/injection, schedule: Q01DX Z (ip), vehicle: saline 107 % of control and 96 % of control | dose: 0.5 mg/kg/injection, schedule: Q01DX Z (ip), vehicle: saline 90 % of control and 96 % of control | dose: 1.0 mg/kg/injection, schedule: Q01DX Z (ip), vehicle: saline 97 % of control

CS(=O)(=O)OCC(O)C(O)C(O)C(O)COS(C)(=O)=O (stereo not drawn)
inactive: [2] 100 % of control | [4] 114 % of control and 94 % of control | [6] 111 % of control and 100 % of control | [7] 105 % of control and 100 % of control | dose: 400.0 mg/kg/injection, schedule: Q01DX010 (ip), vehicle: saline 114 % of control

CC(=O)[C@H]1CC[C@H]2[C@@H]3C[C@H](C)C4=CC(=O)CC[C@]4(C)[C@H]3C(=O)C[C@]12C
inactive: dose: 25.0 mg/kg/injection, schedule: Q01DX Z (sc), vehicle: steriod suspending solution 100 % of control | dose: 50.0 mg/kg/injection, schedule: Q01DX Z (sc), vehicle: steriod suspending solution 108 % of control | dose: 100.0 mg/kg/injection, schedule: Q01DX Z (sc), vehicle: steriod suspending solution 114 % of control | dose: 200.0 mg/kg/injection, schedule: Q01DX Z (sc), vehicle: steriod suspending solution 104 % of control and 105 % of control | dose: 400.0 mg/kg/injection, schedule: Q01DX Z (sc), vehicle: steriod suspending solution 110 % of control | dose: 800.0 mg/kg/injection, schedule: Q01DX Z (sc), vehicle: steriod suspending solution 100 % of control

N[C@@H](Cc1ccc(N(CCCl)CCCl)cc1)C(=O)O
active: dose: 0.62 mg/kg/injection, schedule: Q01DX Z (ip), vehicle: saline 151 % of control | dose: 1.25 mg/kg/injection, schedule: Q01DX Z (ip), vehicle: saline 181 % of control and 196 % of control | dose: 2.5 mg/kg/injection, schedule: Q01DX Z (ip), vehicle: saline 172 % of control | dose: 5.0 mg/kg/injection, schedule: Q01DX Z (ip), vehicle: saline 207 % of control
inactive: dose: 10.0 mg/kg/injection, schedule: Q01DX Z (ip), vehicle: saline 108 % of control and 113 % of control

CN(Cc1cnc2nc(N)nc(N)c2n1)c1c(Cl)cc(C(=O)NC(CCC(=O)O)C(=O)O)cc1Cl (stereo not drawn)
active: [1] 232 % of control | [3] 300 % of control | [5] 320 % of control | dose: 100.0 mg/kg/injection, schedule: Q01DX Z (ip), vehicle: carboxymethylcellulose (CMC) 288 % of control

Nc1nc(SCc2ccccc2)c2[nH]cnc2n1
inactive: dose: 2.5 mg/kg/injection, schedule: Q01DX Z (ip), vehicle: carboxymethylcellulose (CMC) 108 % of control | dose: 4.95 mg/kg/injection, schedule: Q01DX Z (ip), vehicle: carboxymethylcellulose (CMC) 113 % of control | dose: 8.0 mg/kg/injection, schedule: Q01DX010 (ip), vehicle: saline 94 % of control | dose: 9.9 mg/kg/injection, schedule: Q01DX Z (ip), vehicle: carboxymethylcellulose (CMC) 91 % of control | dose: 16.0 mg/kg/injection, schedule: Q01DX010 (ip), vehicle: saline 88 % of control | dose: 18.75 mg/kg/injection, schedule: Q01DX Z (ip), vehicle: carboxymethylcellulose (CMC) 88 % of control | dose: 18.8 mg/kg/injection, schedule: Q01DX Z (ip), vehicle: carboxymethylcellulose (CMC) 113 % of control | dose: 32.0 mg/kg/injection, schedule: Q01DX010 (ip), vehicle: saline 100 % of control | dose: 64.0 mg/kg/injection, schedule: Q01DX010 (ip), vehicle: saline 122 % of control | dose: 128.0 mg/kg/injection, schedule: Q01DX010 (ip), vehicle: saline 110 % of control

CC[n+]1c(-c2ccccc2)c2cc(N)ccc2c2ccc(N)cc21
inactive: dose: 40.0 mg/kg/injection, schedule: Q01DX010 (ip), vehicle: saline 100 % of control
active: dose: 2.5 mg/kg/injection, schedule: Q01DX010 (ip), vehicle: saline 152 % of control | dose: 5.0 mg/kg/injection, schedule: Q01DX010 (ip), vehicle: saline 170 % of control and 228 % of control | dose: 10.0 mg/kg/injection, schedule: Q01DX010 (ip), vehicle: saline 223 % of control and 285 % of control | dose: 20.0 mg/kg/injection, schedule: Q01DX010 (ip), vehicle: saline 158 % of control and 185 % of control

COc1cc2c(c(OC)c1OC)-c1ccc(OC)c(=O)cc1[C@@H](NC(C)=O)CC2
inactive: [9] 109 % of control

CC(=O)N(C)C
inactive: dose: 31.0 mg/kg/injection, schedule: Q01DX Z (ip), vehicle: saline 103 % of control | dose: 125.0 mg/kg/injection, schedule: Q01DX Z (ip), vehicle: saline 100 % of control | dose: 250.0 mg/kg/injection, schedule: Q01DX Z (ip), vehicle: saline 93 % of control | dose: 500.0 mg/kg/injection, schedule: Q01DX Z (ip), vehicle: saline 88 % of control | dose: 2000.0 mg/kg/injection, schedule: Q01DX Z (ip), vehicle: saline 88 % of control

CN1CC[C@]23c4c5ccc(O)c4O[C@H]2C(=O)CC[C@H]3[C@H]1C5
inactive: dose: 0.5 mg/kg/injection, schedule: Q01DX010 (ip), vehicle: saline 106 % of control | dose: 1.0 mg/kg/injection, schedule: Q01DX010 (ip), vehicle: saline 118 % of control | dose: 2.0 mg/kg/injection, schedule: Q01DX010 (ip), vehicle: saline 106 % of control | dose: 4.0 mg/kg/injection, schedule: Q01DX010 (ip), vehicle: saline 100 % of control

N#Cc1cn(C2OC(CO)C(O)C2O)c2ncnc(N)c12 (stereo not drawn)
active: dose: 31.3 micrograms/kg/injection, schedule: Q01DX010 (ip), vehicle: saline 155 % of control
inactive: dose: 0.12 mg/kg/injection, schedule: Q01DX Z (ip), vehicle: carboxymethylcellulose (CMC) 114 % of control | dose: 0.25 mg/kg/injection, schedule: Q01DX Z (ip), vehicle: carboxymethylcellulose (CMC) 106 % of control | dose: 0.5 mg/kg/injection, schedule: Q01DX Z (ip), vehicle: carboxymethylcellulose (CMC) 93 % of control | dose: 1.0 mg/kg/injection, schedule: Q01DX Z (ip), vehicle: carboxymethylcellulose (CMC) 106 % of control | dose: 8.0 micrograms/kg/injection, schedule: Q01DX Z (ip), vehicle: carboxymethylcellulose (CMC) 103 % of control | dose: 16.0 micrograms/kg/injection, schedule: Q01DX Z (ip), vehicle: carboxymethylcellulose (CMC) 103 % of control | dose: 31.0 micrograms/kg/injection, schedule: Q01DX Z (ip), vehicle: carboxymethylcellulose (CMC) 97 % of control | dose: 62.5 micrograms/kg/injection, schedule: Q01DX010 (ip), vehicle: saline 105 % of control | [8] 105 % of control | dose: 250.0 micrograms/kg/injection, schedule: Q01DX010 (ip), vehicle: saline 105 % of control
